Measurements taken from ChEMBL document CHEMBL2074337, “Predicting P-glycoprotein effects on oral absorption: correlation of transport in Caco-2 with drug pharmacokinetics in wild-type and mdr1a(-/-) mice in vivo” (Pharm Res, 2004).

target: ATP-dependent translocase ABCB1 (Homo sapiens, UniProt P08183); assay: TP_TRANSPORTER: transepithelial transport in Caco 2 cell; type: functional, cell-based
Sequence (P08183 whole entry): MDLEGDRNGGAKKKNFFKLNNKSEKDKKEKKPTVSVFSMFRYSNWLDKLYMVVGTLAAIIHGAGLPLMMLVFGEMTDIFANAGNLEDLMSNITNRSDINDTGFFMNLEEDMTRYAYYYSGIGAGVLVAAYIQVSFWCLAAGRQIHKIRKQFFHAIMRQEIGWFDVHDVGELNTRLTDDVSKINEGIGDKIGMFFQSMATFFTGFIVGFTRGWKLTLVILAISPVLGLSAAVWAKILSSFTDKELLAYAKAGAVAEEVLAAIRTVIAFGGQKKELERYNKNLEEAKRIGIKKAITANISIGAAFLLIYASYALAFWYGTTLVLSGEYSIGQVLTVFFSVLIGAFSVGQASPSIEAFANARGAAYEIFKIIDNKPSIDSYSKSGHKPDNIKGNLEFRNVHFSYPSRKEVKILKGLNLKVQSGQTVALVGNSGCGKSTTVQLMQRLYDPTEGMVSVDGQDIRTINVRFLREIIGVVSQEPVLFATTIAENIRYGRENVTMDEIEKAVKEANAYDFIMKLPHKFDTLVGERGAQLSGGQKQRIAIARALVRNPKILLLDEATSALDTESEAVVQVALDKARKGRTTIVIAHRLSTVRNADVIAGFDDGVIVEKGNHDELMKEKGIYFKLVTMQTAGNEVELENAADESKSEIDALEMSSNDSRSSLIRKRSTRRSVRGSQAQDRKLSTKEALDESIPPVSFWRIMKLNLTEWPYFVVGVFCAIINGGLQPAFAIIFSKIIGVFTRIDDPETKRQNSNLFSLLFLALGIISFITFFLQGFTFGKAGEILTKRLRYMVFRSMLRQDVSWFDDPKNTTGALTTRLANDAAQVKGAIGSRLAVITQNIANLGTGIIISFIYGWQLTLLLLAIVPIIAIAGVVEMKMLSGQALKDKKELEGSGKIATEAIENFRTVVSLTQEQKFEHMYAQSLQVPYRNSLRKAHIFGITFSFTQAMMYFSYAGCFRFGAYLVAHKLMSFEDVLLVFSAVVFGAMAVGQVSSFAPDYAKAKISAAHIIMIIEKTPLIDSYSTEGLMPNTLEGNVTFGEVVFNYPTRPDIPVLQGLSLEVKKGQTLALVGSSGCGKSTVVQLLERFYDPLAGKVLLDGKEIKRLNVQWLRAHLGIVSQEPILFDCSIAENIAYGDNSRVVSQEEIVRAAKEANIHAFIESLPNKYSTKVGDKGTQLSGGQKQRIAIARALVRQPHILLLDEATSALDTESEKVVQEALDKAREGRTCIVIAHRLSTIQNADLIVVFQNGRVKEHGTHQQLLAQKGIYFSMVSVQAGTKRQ

Row | SMILES | Activity
1 | CC(C)(C)NC(=O)[C@@H]1C[C@@H]2CCCC[C@@H]2CN1C[C@@H](O)[C@H](Cc1ccccc1)NC(=O)[C@H](CC(N)=O)NC(=O)c1ccc2ccccc2n1 [SAQUINAVIR] | substrate [+]
2 | C=CCNc1nc(NCC=C)nc(N2CCC(NCC(c3ccc(F)cc3)c3ccc(F)cc3)CC2)n1 | substrate [+]
3 | CC[C@@]1(O)C(=O)OCc2c1cc1n(c2=O)Cc2cc3c(CN(C)C)c(O)ccc3nc2-1 [TOPOTECAN] | substrate [+]
4 | CC(=O)O[C@H]1C(=O)[C@@]2(C)[C@H]([C@H](OC(=O)c3ccccc3)[C@]3(O)C[C@H](OC(=O)[C@H](O)[C@@H](NC(=O)c4ccccc4)c4ccccc4)C(C)=C1C3(C)C)[C@]1(OC(C)=O)CO[C@@H]1C[C@@H]2O [PACLITAXEL] | substrate [+]
5 | NS(=O)(=O)N1CCN(C2CN(CC[C@]3(c4ccc(Cl)c(Cl)c4)CCC(=O)N(CC4CC4)C3)C2)CC1 | substrate [+]

Now from value to compound:

Row | Activity | SMILES
6 | substrate [+] | C=CC[C@@H]1/C=C(\C)C[C@H](C)C[C@H](OC)[C@H]2O[C@@](O)(C(=O)C(=O)N3CCCC[C@H]3C(=O)O[C@H](/C(C)=C/[C@@H]3CC[C@@H](O)[C@H](OC)C3)[C@H](C)[C@@H](O)CC1=O)[C@H](C)C[C@@H]2OC [TACROLIMUS ANHYDROUS]
7 | substrate [+] | CO[C@H]1/C=C/O[C@@]2(C)Oc3c(C)c(O)c4c(O)c(c(/C=N/N5CCN(C)CC5)c(O)c4c3C2=O)NC(=O)/C(C)=C\C=C\[C@H](C)[C@H](O)[C@@H](C)[C@@H](O)[C@@H](C)[C@H](OC(C)=O)[C@@H]1C [RIFAMPIN]
8 | substrate [+] | C[C@H]1O[C@@H](O[C@H]2[C@@H](O)C[C@H](O[C@H]3[C@@H](O)C[C@H](O[C@H]4CC[C@@]5(C)[C@H](CC[C@@H]6[C@@H]5C[C@@H](O)[C@]5(C)[C@@H](C7=CC(=O)OC7)CC[C@]65O)C4)O[C@@H]3C)O[C@@H]2C)C[C@H](O)[C@@H]1O [DIGOXIN]
